The values below are quoted from earlier work in patent US20050123612A1, “Ribavirin granulate for producing coated tablets” (priority 2001, published 2005).

The series relates to embryo development. The conditions noted are these: animal experiments; in particular first six weeks of embryo development.

For the molecule `NC(=O)c1ncn([C@@H]2O[C@H](CO)[C@@H](O)[C@H]2O)n1` [ribavirin, 1-β-D-Ribafuranosyl-1,2,4-triazole-3-carboxamide], the teratogenicity result is reported as “teratogenic”.
